Experimental data taken from ChEMBL document CHEMBL3045145, “Synthesis, characterization and their anticonvulsant, anti-inflammatory studies of some novel chromeno oxadiazoles” (2013).

Columns and labels:
Type in all cases: functional
[1] = test system: Mus musculus; experiment: Anticonvulsant activity in Mus musculus albino (mouse) assessed as time of onset of PTZ-induced clonic convulsion at 25 mg/kg, po administered 30 min prior to PTZ-challenge (reference value: 61 secs)
[2] = test system: Mus musculus; experiment: Anticonvulsant activity in Mus musculus albino (mouse) assessed as protection against PTZ-induced clonic convulsion at 25 mg/kg, po administered 30 min prior to PTZ-challenge relative to control
[3] = test system: Rattus norvegicus; experiment: Anti-inflammatory activity in Rattus norvegicus Wistar (rat) assessed as inhibition of carrageenan-induced paw edema at 20 mg/kg, ip administered 30 min post carrageenan-challenge measured after 3 hr relative to control; settings: route intraperitoneal
[4] = test system: Rattus norvegicus; experiment: Anti-inflammatory activity in Rattus norvegicus Wistar (rat) assessed as inhibition of carrageenan-induced paw edema at 10 mg/kg, ip administered 30 min post carrageenan-challenge measured after 3 hr relative to control; settings: route intraperitoneal

Structure (SMILES): O=[N+]([O-])c1cccc(/C=N/C2Oc3ccccc3CC2c2noc(-c3cccc([N+](=O)[O-])c3)n2)c1 (stereo not given)
- Time [1]: 60 s
- Activity [2]: 100%
- inhibition in vivo at 20 mg/kg [3]: 40.9%

Structure (SMILES): Fc1ccc(Br)cc1/C=N/C1Oc2ccccc2CC1c1noc(-c2cc(Br)ccc2F)n1 (stereo not given)
- Time [1]: 128 s
- Activity [2]: 66.6%

Structure (SMILES): COc1cc(/C=N/C2Oc3ccccc3CC2c2noc(-c3ccc(O)c(OC)c3)n2)ccc1O (stereo not given)
- Time [1]: 80 s
- Activity [2]: 66.6%
- inhibition in vivo at 20 mg/kg [3]: 42.5%

Structure (SMILES): Brc1ccc(/C=N/C2Oc3ccccc3CC2c2noc(-c3ccc(Br)cc3)n2)cc1 (stereo not given)
- Time [1]: 104 s
- Activity [2]: 100%

Structure (SMILES): C(=N\C1Oc2ccccc2CC1c1noc(-c2nccs2)n1)/c1nccs1 (stereo not given)
- Time [1]: 201 s
- Activity [2]: 100%
- inhibition in vivo at 20 mg/kg [3]: 17.3%

Structure (SMILES): Fc1ccc(/C=N/C2Oc3ccccc3CC2c2noc(-c3ccc(F)c(Oc4ccccc4)c3)n2)cc1Oc1ccccc1 (stereo not given)
- inhibition in vivo at 20 mg/kg [3]: 37%

Structure (SMILES): Clc1ccccc1/C=N/C1Oc2ccccc2CC1c1noc(-c2ccccc2Cl)n1 (stereo not given)
- Time [1]: 226 s
- Activity [2]: 100%
- inhibition in vivo at 20 mg/kg [3]: 37%

Structure (SMILES): Clc1ccc(/C=N/C2Oc3ccccc3CC2c2noc(-c3ccc(Cl)cc3)n2)cc1 (stereo not given)
- Time [1]: 218 s
- Activity [2]: 100%
- inhibition in vivo at 20 mg/kg [3]: 26.8%

Structure (SMILES): Oc1ccccc1/C=N/C1Oc2ccccc2CC1c1noc(-c2ccccc2O)n1 (stereo not given)
- Time [1]: 325 s
- Activity [2]: 100%
- inhibition in vivo at 20 mg/kg [3]: 27.5%

Structure (SMILES): COc1ccc(/C=N/C2Oc3ccccc3CC2c2noc(-c3ccc(OC)c(OC)c3)n2)cc1OC (stereo not given)
- Time [1]: 158 s
- Activity [2]: 100%
- inhibition in vivo at 20 mg/kg [3]: 31.5%

Structure (SMILES): Fc1ccc(/C=N/C2Oc3ccccc3CC2c2noc(-c3ccc(F)cc3)n2)cc1 (stereo not given)
- Time [1]: 101 s
- Activity [2]: 100%

Structure (SMILES): C(/C=C/c1ccccc1)=N/C1Oc2ccccc2CC1c1noc(/C=C/c2ccccc2)n1 (stereo not given)
- inhibition in vivo at 20 mg/kg [3]: 23.6%

Structure (SMILES): O=C(O)Cc1ccccc1Nc1c(Cl)cccc1Cl [DICLOFENAC]
- inhibition in vivo at 10 mg/kg [4]: 80.4%
